{"source": "patent US8192962B2", "about": "“Processes for detecting toxic substances” (Daikin Industries, Ltd., priority 2001, dated 2012)", "system": "DNA repair protein genes", "test": "DNA chip mRNA expression in yeast, DNA repair protein genes (Table 3)", "format": "cell-based, Saccharomyces cerevisiae S288C", "conditions": "incubated two hours, concentrations as in the 1st table", "outline": "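Value is the scanned fluorescence intensity ratio of exposed versus chemical-free cells. Log-phase S288C yeast in YPD at 25° C. received one toxic substance for two hours, dosed to slow growth without killing; Cy3/Cy5-labeled cDNA from oligo-dT-purified mRNA was hybridized to a whole-genome chip at 65° C.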"}
{"substance": "Na2As [(1)]", "values": [{"measurement": "The level of expressed mRNA in the presence of chemical substance/The level of expressed mRNA in the absence of chemical substance", "setting": "yeast gene YAL015C", "result": 1.2}, {"measurement": "The level of expressed mRNA in the presence of chemical substance/The level of expressed mRNA in the absence of chemical substance", "setting": "yeast gene YAR007C", "result": 0.7}, {"measurement": "The level of expressed mRNA in the presence of chemical substance/The level of expressed mRNA in the absence of chemical substance", "setting": "yeast gene YBL019W", "result": 0.9}, {"measurement": "The level of expressed mRNA in the presence of chemical substance/The level of expressed mRNA in the absence of chemical substance", "setting": "yeast gene YBR073W", "result": 0.7}, {"measurement": "The level of expressed mRNA in the presence of chemical substance/The level of expressed mRNA in the absence of chemical substance", "setting": "yeast gene YBR272C", "result": 0.8}, {"measurement": "The level of expressed mRNA in the presence of chemical substance/The level of expressed mRNA in the absence of chemical substance", "setting": "yeast gene YCR014C", "result": 0.8}, {"measurement": "The level of expressed mRNA in the presence of chemical substance/The level of expressed mRNA in the absence of chemical substance", "setting": "yeast gene YDL017W", "result": 0.8}, {"measurement": "The level of expressed mRNA in the presence of chemical substance/The level of expressed mRNA in the absence of chemical substance", "setting": "yeast gene YDL059C", "result": 2.6}, {"measurement": "The level of expressed mRNA in the presence of chemical substance/The level of expressed mRNA in the absence of chemical substance", "setting": "yeast gene YDL200C", "result": 1.4}, {"measurement": "The level of expressed mRNA in the presence of chemical substance/The level of expressed mRNA in the absence of chemical substance", "setting": "yeast gene YDR054C", "result": 1.3}, {"measurement": "The level of expressed mRNA in the presence of chemical substance/The level of expressed mRNA in the absence of chemical substance", "setting": "yeast gene YDR369C", "result": 1.1}, {"measurement": "The level of expressed mRNA in the presence of chemical substance/The level of expressed mRNA in the absence of chemical substance", "setting": "yeast gene YEL019C", "result": 1.1}, {"measurement": "The level of expressed mRNA in the presence of chemical substance/The level of expressed mRNA in the absence of chemical substance", "setting": "yeast gene YEL037C", "result": 0.9}, {"measurement": "The level of expressed mRNA in the presence of chemical substance/The level of expressed mRNA in the absence of chemical substance", "setting": "yeast gene YER162C", "result": 1.0}, {"measurement": "The level of expressed mRNA in the presence of chemical substance/The level of expressed mRNA in the absence of chemical substance", "setting": "yeast gene YFL014W", "result": 3.4}, {"measurement": "The level of expressed mRNA in the presence of chemical substance/The level of expressed mRNA in the absence of chemical substance", "setting": "yeast gene YGL058W", "result": 1.1}, {"measurement": "The level of expressed mRNA in the presence of chemical substance/The level of expressed mRNA in the absence of chemical substance", "setting": "yeast gene YGL091C", "result": 2.0}, {"measurement": "The level of expressed mRNA in the presence of chemical substance/The level of expressed mRNA in the absence of chemical substance", "setting": "yeast gene YGL127C", "result": 1.0}, {"measurement": "The level of expressed mRNA in the presence of chemical substance/The level of expressed mRNA in the absence of chemical substance", "setting": "yeast gene YGL163C", "result": 0.9}, {"measurement": "The level of expressed mRNA in the presence of chemical substance/The level of expressed mRNA in the absence of chemical substance", "setting": "yeast gene YGL249W", "result": 1.4}, {"measurement": "The level of expressed mRNA in the presence of chemical substance/The level of expressed mRNA in the absence of chemical substance", "setting": "yeast gene YGR180C", "result": 3.1}, {"measurement": "The level of expressed mRNA in the presence of chemical substance/The level of expressed mRNA in the absence of chemical substance", "setting": "yeast gene YGR231C", "result": 1.0}, {"measurement": "The level of expressed mRNA in the presence of chemical substance/The level of expressed mRNA in the absence of chemical substance", "setting": "yeast gene YGR258C", "result": 0.7}, {"measurement": "The level of expressed mRNA in the presence of chemical substance/The level of expressed mRNA in the absence of chemical substance", "setting": "yeast gene YHR164C", "result": 0.9}, {"measurement": "The level of expressed mRNA in the presence of chemical substance/The level of expressed mRNA in the absence of chemical substance", "setting": "yeast gene YIL036W", "result": 0.9}, {"measurement": "The level of expressed mRNA in the presence of chemical substance/The level of expressed mRNA in the absence of chemical substance", "setting": "yeast gene YIL072W", "result": 0.8}, {"measurement": "The level of expressed mRNA in the presence of chemical substance/The level of expressed mRNA in the absence of chemical substance", "setting": "yeast gene YIL143C", "result": 0.9}, {"measurement": "The level of expressed mRNA in the presence of chemical substance/The level of expressed mRNA in the absence of chemical substance", "setting": "yeast gene YIL153W", "result": 0.8}, {"measurement": "The level of expressed mRNA in the presence of chemical substance/The level of expressed mRNA in the absence of chemical substance", "setting": "yeast gene YIR002C", "result": 0.8}, {"measurement": "The level of expressed mRNA in the presence of chemical substance/The level of expressed mRNA in the absence of chemical substance", "setting": "yeast gene YJL026W", "result": 2.5}, {"measurement": "The level of expressed mRNA in the presence of chemical substance/The level of expressed mRNA in the absence of chemical substance", "setting": "yeast gene YJR046W", "result": 1.0}, {"measurement": "The level of expressed mRNA in the presence of chemical substance/The level of expressed mRNA in the absence of chemical substance", "setting": "yeast gene YJR052W", "result": 1.1}, {"measurement": "The level of expressed mRNA in the presence of chemical substance/The level of expressed mRNA in the absence of chemical substance", "setting": "yeast gene YKL145W", "result": 0.8}, {"measurement": "The level of expressed mRNA in the presence of chemical substance/The level of expressed mRNA in the absence of chemical substance", "setting": "yeast gene YLR103C", "result": 0.8}, {"measurement": "The level of expressed mRNA in the presence of chemical substance/The level of expressed mRNA in the absence of chemical substance", "setting": "yeast gene YLR233C", "result": 1.1}, {"measurement": "The level of expressed mRNA in the presence of chemical substance/The level of expressed mRNA in the absence of chemical substance", "setting": "yeast gene YLR288C", "result": 1.2}, {"measurement": "The level of expressed mRNA in the presence of chemical substance/The level of expressed mRNA in the absence of chemical substance", "setting": "yeast gene YML032C", "result": 0.8}, {"measurement": "The level of expressed mRNA in the presence of chemical substance/The level of expressed mRNA in the absence of chemical substance", "setting": "yeast gene YML058W", "result": 1.9}, {"measurement": "The level of expressed mRNA in the presence of chemical substance/The level of expressed mRNA in the absence of chemical substance", "setting": "yeast gene YMR035W", "result": 1.2}, {"measurement": "The level of expressed mRNA in the presence of chemical substance/The level of expressed mRNA in the absence of chemical substance", "setting": "yeast gene YMR072W", "result": 1.1}, {"measurement": "The level of expressed mRNA in the presence of chemical substance/The level of expressed mRNA in the absence of chemical substance", "setting": "yeast gene YMR096W", "result": 1.7}, {"measurement": "The level of expressed mRNA in the presence of chemical substance/The level of expressed mRNA in the absence of chemical substance", "setting": "yeast gene YMR284W", "result": 1.1}, {"measurement": "The level of expressed mRNA in the presence of chemical substance/The level of expressed mRNA in the absence of chemical substance", "setting": "yeast gene YNL213C", "result": 1.7}, {"measurement": "The level of expressed mRNA in the presence of chemical substance/The level of expressed mRNA in the absence of chemical substance", "setting": "yeast gene YNL250W", "result": 0.9}, {"measurement": "The level of expressed mRNA in the presence of chemical substance/The level of expressed mRNA in the absence of chemical substance", "setting": "yeast gene YNL261W", "result": 1.0}, {"measurement": "The level of expressed mRNA in the presence of chemical substance/The level of expressed mRNA in the absence of chemical substance", "setting": "yeast gene YNL312W", "result": 0.9}, {"measurement": "The level of expressed mRNA in the presence of chemical substance/The level of expressed mRNA in the absence of chemical substance", "setting": "yeast gene YOL043C", "result": 1.1}, {"measurement": "The level of expressed mRNA in the presence of chemical substance/The level of expressed mRNA in the absence of chemical substance", "setting": "yeast gene YOR005C", "result": 1.2}, {"measurement": "The level of expressed mRNA in the presence of chemical substance/The level of expressed mRNA in the absence of chemical substance", "setting": "yeast gene YOR386W", "result": 1.0}, {"measurement": "The level of expressed mRNA in the presence of chemical substance/The level of expressed mRNA in the absence of chemical substance", "setting": "yeast gene YPL022W", "result": 0.7}, {"measurement": "The level of expressed mRNA in the presence of chemical substance/The level of expressed mRNA in the absence of chemical substance", "setting": "yeast gene YPL164C", "result": 1.1}, {"measurement": "The level of expressed mRNA in the presence of chemical substance/The level of expressed mRNA in the absence of chemical substance", "setting": "yeast gene YPL194W", "result": 0.9}, {"measurement": "The level of expressed mRNA in the presence of chemical substance/The level of expressed mRNA in the absence of chemical substance", "setting": "yeast gene YPR025C", "result": 1.1}]}
